Here are results for 33 molecules from patent US20040259866A1, “Calcium channel blockers comprising two benzhydril moieties” (priority 1998, published 2004).

Each structure is given as a SMILES string. Like-named read-outs stand apart in the source and are kept apart here.

One may read the IC50 as the concentration needed to halve the response being measured.

Assay [1] concerns the target T1, human α1G subunits (T-type channels) (Homo sapiens, UniProt O43497).
T1 construct: expressed in transfected cells
In words: Block of α1G T-type channels, patch clamp in HEK cell lines (Example 8). The class given is cell-based. How it is done:
Standard patch-clamp techniques were employed to identify blockers of T-type currents. Briefly, previously described HEK cell lines stably expressing human α1G subunits were used for all the recordings (passage #: 4-20, 37° C., 5% CO2). To obtain T-type currents, plastic dishes containing semi-confluent cells were positioned on the stage of a ZEISS AXIOVERT S100 microscope after replacing the culture medium with external solution (see below). Whole-cell patches were obtained using pipettes (borosilicate glass with filament, O.D.: 1.5 mm, I.D.: 0.86 mm, 10 cm length), fabricated on a SUTTER P-97 puller with resistance values of ˜5 MΩ (see below for internal medium).
In the non-inactivating protocol, the holding potential is set at −110 mV and with a pre-pulse at −100 mV for 1 second prior to the test pulse at −40 mV for 50 ms; in the inactivation protocol, the pre-pulse is at approximately −85 mV for 1 second, which inactivates about 15% of the T-type channels, as shown below. [formula]
Test compounds were dissolved in external solution, 0.1-0.01% DMSO. After ˜10 min rest, they were applied by gravity close to the cell using a WPI microfil tubing. The “non-inactivated” pre-pulse was used to examine the resting block of a compound. The “inactivated” protocol was employed to study voltage-dependent block, but the initial data shown below were mainly obtained using the non-inactivated protocol only. IC50 values are shown for various compounds of the invention in Table 5.
A general note: Patch clamp records ionic current or voltage across a cell membrane.

Assay [2] has as its target T2, rat α1B+α2b+β1b channels (N-type channels) (Rattus norvegicus, UniProt Q02294).
T2 construct: expressed in transfected cells
In words: Block of α1B N-type channels, whole cell patch recordings (Example 6). The conditions noted are these: HEK 293, 5 mM barium as charge carrier. The class given is cell-based. How it is done: Antagonist activity was measured using whole cell patch recordings on human embryonic kidney cells either stably or transiently expressing rat α1B+α2b+β1b channels (N-type channels) with 5 mM barium as a charge carrier.
For transient expression, host cells, such as human embryonic kidney cells, HEK 293 (ATCC# CRL 1573) were grown in standard DMEM medium supplemented with 2 mM glutamine and 10% fetal bovine serum. HEK 293 cells were transfected by a standard calcium-phosphate-DNA coprecipitation method using the rat α1B+β1b+α2δ N-type calcium channel subunits in a vertebrate expression vector (for example, see Current Protocols in Molecular Biology).
After an incubation period of from 24 to 72 hrs the culture medium was removed and replaced with external recording solution (see below). Whole cell patch clamp experiments were performed using an Axopatch 200B amplifier (Axon Instruments, Burlingame, Calif.) linked to an IBM compatible personal computer equipped with pCLAMP software. Borosilicate glass patch pipettes (Sutter Instrument Co., Novato, Calif.) were polished (Microforge, Narishige, Japan) to a resistance of about 4 MΩ when filled with cesium methanesulfonate internal solution (composition in MM: 109 CsCH3SO4, 4 MgCl2, 9 EGTA, 9 HEPES, pH 7.2). Cells were bathed in 5 mM Ba^++ (in mM: 5 BaCl2, 1 MgCl2, 10 HEPES, 40 tetraethylammonium chloride, 10 glucose, 87.5 CsCl pH 7.2). […] Drugs were perfused directly into the vicinity of the cells using a microperfusion system.
Normalized dose-response curves were fit (Sigmaplot 4.0, SPSS Inc., Chicago, Ill.) by the Hill equation to determine IC50 values. Steady-state inactivation curves were plotted as the normalized test pulse amplitude following 5 s inactivating prepulses at +10 mV increments. Inactivation curves were fit (Sigmaplot 4.0) with the Boltzman equation, Ipeak (normalized)=1/(1+exp((V-Vh)z/25.6)), where V and Vh are the conditioning and half inactivation potentials, respectively, and z is the slope factor.
Using the procedure set forth above, various compounds of the invention were tested for their ability to block N-type calcium channels.

The mark [3] stands for this setting: 100 mV (non-inactivating protocol), read-out: Block of α1G T-type Channels IC50, 100 mV.
[4] abbreviates: 0.067 Hz, read-out: Block of α1B N-type Channels IC50, 0.067 Hz.
Setting [5] is: 0.2 Hz, read-out: Block of α1B N-type Channels IC50, 0.2 Hz.
Setting [6] is: 100 mV (non-inactivating protocol).
The mark [7] stands for this setting: 80 mV (inactivation protocol), read-out: Block of α1G T-type Channels IC50, 80 mV.

T2 sequence (Q02294 whole entry): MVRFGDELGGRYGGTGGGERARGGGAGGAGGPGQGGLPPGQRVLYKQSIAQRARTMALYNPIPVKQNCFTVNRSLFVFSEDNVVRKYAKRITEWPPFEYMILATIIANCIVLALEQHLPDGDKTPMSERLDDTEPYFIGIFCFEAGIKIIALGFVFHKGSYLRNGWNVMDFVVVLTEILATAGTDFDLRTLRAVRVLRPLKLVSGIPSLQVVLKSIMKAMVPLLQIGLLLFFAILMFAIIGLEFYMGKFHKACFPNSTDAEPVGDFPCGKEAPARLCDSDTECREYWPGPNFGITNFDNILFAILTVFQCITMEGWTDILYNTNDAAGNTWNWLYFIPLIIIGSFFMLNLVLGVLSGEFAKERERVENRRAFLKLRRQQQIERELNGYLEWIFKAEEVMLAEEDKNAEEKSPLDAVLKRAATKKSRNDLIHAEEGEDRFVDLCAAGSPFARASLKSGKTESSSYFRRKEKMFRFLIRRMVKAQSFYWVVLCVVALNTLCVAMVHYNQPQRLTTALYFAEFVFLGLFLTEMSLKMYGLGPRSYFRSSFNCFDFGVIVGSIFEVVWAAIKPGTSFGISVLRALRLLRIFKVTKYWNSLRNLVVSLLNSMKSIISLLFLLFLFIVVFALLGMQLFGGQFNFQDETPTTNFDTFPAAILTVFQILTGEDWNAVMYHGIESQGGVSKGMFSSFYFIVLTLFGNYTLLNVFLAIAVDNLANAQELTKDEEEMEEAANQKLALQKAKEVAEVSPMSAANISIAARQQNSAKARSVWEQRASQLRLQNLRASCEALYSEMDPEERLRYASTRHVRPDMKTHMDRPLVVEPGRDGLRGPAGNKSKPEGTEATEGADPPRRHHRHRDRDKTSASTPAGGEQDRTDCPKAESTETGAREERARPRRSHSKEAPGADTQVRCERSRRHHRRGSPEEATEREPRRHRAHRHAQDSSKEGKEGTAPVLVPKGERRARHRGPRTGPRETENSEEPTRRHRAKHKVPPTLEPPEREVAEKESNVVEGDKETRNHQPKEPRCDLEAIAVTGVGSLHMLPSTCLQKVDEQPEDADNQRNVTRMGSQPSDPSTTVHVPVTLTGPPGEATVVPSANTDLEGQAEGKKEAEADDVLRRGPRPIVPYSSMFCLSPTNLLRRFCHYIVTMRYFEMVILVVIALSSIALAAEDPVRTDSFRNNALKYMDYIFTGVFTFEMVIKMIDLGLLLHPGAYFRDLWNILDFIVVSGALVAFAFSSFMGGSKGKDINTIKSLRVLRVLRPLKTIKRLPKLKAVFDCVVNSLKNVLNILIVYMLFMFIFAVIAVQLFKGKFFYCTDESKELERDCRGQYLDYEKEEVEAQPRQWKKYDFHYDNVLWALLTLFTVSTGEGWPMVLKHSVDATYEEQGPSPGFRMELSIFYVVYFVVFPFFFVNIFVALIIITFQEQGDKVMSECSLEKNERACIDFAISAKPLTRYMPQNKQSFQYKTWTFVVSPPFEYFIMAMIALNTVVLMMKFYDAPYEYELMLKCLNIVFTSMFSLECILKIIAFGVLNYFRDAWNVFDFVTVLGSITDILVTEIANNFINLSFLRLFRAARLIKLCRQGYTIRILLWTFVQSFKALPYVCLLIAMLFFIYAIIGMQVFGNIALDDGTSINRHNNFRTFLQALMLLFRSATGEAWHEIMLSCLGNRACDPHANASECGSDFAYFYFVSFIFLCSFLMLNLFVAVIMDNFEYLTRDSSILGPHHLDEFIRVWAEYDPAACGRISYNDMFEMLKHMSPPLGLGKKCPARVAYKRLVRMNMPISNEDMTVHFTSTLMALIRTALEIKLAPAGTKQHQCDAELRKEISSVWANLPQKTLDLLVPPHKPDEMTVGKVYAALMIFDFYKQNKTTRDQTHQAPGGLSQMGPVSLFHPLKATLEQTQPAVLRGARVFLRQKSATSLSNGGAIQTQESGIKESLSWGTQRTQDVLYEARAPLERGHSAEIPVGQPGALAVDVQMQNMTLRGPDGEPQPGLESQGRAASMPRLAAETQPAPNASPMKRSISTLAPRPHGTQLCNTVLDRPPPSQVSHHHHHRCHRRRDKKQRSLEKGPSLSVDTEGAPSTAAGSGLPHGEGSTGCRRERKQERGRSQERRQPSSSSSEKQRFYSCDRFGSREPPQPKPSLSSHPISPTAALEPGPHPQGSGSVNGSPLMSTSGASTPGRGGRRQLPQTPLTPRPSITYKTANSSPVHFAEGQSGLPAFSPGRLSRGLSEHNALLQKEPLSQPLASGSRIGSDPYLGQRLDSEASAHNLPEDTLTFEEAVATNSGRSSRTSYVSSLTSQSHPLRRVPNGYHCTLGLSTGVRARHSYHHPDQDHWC
T1 sequence (O43497 whole entry): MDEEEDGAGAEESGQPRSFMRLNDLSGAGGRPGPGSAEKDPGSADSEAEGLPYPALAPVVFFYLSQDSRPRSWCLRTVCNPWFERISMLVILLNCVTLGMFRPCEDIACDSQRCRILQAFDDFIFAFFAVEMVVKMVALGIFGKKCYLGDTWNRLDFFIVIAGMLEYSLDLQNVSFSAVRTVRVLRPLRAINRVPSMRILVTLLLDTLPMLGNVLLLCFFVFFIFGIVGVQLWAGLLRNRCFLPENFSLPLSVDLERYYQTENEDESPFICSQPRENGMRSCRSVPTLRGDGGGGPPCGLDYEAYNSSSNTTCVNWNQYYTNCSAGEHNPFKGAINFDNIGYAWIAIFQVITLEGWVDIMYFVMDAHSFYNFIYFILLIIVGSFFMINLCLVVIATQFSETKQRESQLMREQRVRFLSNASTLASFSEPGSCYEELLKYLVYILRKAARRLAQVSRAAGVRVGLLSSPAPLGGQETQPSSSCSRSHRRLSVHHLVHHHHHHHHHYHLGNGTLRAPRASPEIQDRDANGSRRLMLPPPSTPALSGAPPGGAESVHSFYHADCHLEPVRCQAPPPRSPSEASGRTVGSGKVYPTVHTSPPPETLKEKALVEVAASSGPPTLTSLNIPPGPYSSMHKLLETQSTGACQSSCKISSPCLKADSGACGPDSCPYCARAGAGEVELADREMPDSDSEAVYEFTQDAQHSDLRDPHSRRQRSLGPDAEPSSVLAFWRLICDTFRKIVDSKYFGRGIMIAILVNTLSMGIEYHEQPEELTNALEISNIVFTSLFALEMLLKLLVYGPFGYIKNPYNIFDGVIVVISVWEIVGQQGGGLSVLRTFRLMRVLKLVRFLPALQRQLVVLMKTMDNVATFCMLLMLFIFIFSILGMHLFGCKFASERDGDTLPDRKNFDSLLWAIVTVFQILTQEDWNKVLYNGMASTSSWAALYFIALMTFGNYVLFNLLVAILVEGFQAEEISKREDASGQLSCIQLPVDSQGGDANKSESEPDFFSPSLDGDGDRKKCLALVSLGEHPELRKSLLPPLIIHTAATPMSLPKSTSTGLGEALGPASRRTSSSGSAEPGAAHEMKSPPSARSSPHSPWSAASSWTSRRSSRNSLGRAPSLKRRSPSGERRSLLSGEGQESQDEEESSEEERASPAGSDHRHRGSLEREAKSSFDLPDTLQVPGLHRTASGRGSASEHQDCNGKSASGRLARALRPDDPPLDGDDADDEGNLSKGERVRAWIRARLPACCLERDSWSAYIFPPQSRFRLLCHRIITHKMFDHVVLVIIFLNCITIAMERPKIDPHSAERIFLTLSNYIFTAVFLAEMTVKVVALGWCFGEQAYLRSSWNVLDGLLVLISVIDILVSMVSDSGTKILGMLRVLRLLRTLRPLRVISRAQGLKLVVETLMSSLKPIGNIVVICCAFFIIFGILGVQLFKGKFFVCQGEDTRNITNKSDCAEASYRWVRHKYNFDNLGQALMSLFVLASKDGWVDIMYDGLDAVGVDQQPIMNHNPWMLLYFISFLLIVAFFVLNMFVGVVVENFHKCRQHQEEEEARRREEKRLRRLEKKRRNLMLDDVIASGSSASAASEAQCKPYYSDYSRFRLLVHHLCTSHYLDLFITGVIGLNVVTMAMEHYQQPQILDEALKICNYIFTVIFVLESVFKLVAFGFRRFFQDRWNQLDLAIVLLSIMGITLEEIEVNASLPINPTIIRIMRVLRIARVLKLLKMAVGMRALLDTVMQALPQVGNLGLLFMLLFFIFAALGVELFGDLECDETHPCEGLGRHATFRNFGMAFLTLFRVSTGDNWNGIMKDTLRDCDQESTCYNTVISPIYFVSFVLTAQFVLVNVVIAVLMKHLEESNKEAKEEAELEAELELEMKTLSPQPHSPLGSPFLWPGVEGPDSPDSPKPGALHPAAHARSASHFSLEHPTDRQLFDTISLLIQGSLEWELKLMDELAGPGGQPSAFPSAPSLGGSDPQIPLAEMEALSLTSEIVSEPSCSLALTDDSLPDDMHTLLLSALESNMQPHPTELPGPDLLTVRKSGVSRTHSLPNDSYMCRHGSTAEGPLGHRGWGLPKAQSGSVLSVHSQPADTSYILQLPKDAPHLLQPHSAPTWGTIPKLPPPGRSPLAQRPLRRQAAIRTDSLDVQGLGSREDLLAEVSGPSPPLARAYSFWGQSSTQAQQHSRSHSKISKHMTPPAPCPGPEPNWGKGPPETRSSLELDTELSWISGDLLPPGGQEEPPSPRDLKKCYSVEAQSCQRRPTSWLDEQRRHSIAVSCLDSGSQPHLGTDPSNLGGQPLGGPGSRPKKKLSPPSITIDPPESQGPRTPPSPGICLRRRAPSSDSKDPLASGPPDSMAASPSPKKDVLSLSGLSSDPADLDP

`O=C(CC(c1ccccc1)c1ccccc1)N1CCN(C(c2ccccc2)c2cc(Cl)cc(Cl)c2)CC1` (centres unmarked) [Compound P9]: the results for the IC50 in assay [1] (setting [3]), in assay [2] (setting [4]) and in assay [2] (setting [5]) were above 1000 nM, 230 nM and 170 nM, respectively.
On to `O=C(CC(c1ccccc1)c1ccccc1)N1CCN(C(c2ccccc2)c2cc(C(F)(F)F)cc(C(F)(F)F)c2)CC1` (centres unmarked) [Compound P10], for which the IC50 in assay [2] (setting [4]) is 550 nM; in assay [2] (setting [5]), 450 nM.
In the case of `CC(C)(C)c1ccc(C(c2ccccc2)N2CCN(C(=O)CC(c3ccccc3)c3ccccc3)CC2)cc1` (centres unmarked) [Compound P11], the half-maximal inhibitory concentration (IC50) in assay [2] (setting [4]) was 370 nM; in assay [2] (setting [5]), 190 nM.
In the case of `O=C(CC(c1ccccc1)c1ccccc1)N1CCN(C(c2ccccc2)c2ccccc2OC(F)F)CC1` (centres unmarked) [Compound P12], the figures for the half-inhibitory concentration (IC50) in assay [2] (setting [4]) and in assay [2] (setting [5]) were 340 nM and 190 nM, respectively.
For `O=C(CC(c1ccccc1)c1ccccc1)N1CCN(C(c2ccccc2)c2c(Cl)cccc2Cl)CC1` (centres unmarked) [Compound P13], the figures for the 50% inhibitory concentration (IC50) in assay [1] (setting [3]), in assay [2] (setting [4]) and in assay [2] (setting [5]) were below 1000 nM, 300 nM and 210 nM, respectively.
Consider `COc1cc(OC)cc(C(c2ccccc2)N2CCN(C(=O)CC(c3ccccc3)c3ccccc3)CC2)c1` (centres unmarked) [Compound P14], for which the IC50 in assay [2] (setting [4]) came to 320 nM; in assay [2] (setting [5]), 210 nM.
Turning to `O=C(CC(c1ccccc1)c1ccccc1)N1CCN(C(c2ccccc2)c2cccc(Cl)c2Cl)CC1` (centres unmarked) [Compound P15], the concentration for half-maximal inhibition (IC50) is 63 nM in assay [1] (setting [3]), 348 nM in assay [2] (setting [4]) and 217 nM in assay [2] (setting [5]).
In the case of `O=C(CC(c1ccccc1)c1ccccc1)N1CCN(C2c3ccccc3Oc3ccccc32)CC1` [Compound P16], the IC50 in assay [2] (setting [4]) stood at 290 nM; in assay [2] (setting [5]), 220 nM.
With `O=C(CC(c1ccccc1)c1ccccc1)N1CCN(C(c2ccccc2)c2ccc(OCc3ccccc3)cc2)CC1` (centres unmarked) [Compound P17], the “Block of α1G T-type Channels IC50, 100 mV” value in assay [1] (setting [6]) was “No effect”. Besides, the 50% inhibitory concentration (IC50) in assay [2] (setting [4]) is 286 nM; in assay [2] (setting [5]), 233 nM.
For the molecule `COc1ccc(C(c2ccc(OC)cc2)N2CCN(C(=O)CC(c3ccccc3)c3ccccc3)CC2)cc1` [Compound P19], the IC50 in assay [1] (setting [3]) was 745 nM; in assay [2] (setting [4]) it was 360 nM; in assay [2] (setting [5]), 249 nM.
For the molecule `COc1ccc(C(c2ccccc2)N2CCN(C(=O)CC(c3ccccc3)c3ccccc3)CC2)cc1` (centres unmarked) [Compound P20], the IC50 was found to be 320 nM in assay [2] (setting [4]) and 250 nM in assay [2] (setting [5]).
With `COc1cc(C(c2ccccc2)N2CCN(C(=O)CC(c3ccccc3)c3ccccc3)CC2)cc(OC)c1O` (centres unmarked) [Compound P21], the IC50 in assay [2] (setting [4]) stood at 437 nM; in assay [2] (setting [5]), 252 nM.
Regarding `O=C(CC(c1ccccc1)c1ccccc1)N1CCN(C(c2ccccc2)c2ccccc2C(F)(F)F)CC1` (centres unmarked) [Compound P22], the IC50 in assay [2] (setting [4]) amounted to 538 nM; in assay [2] (setting [5]), 301 nM.
`Cc1ccc(C(c2ccccc2)N2CCN(C(=O)CC(c3ccccc3)c3ccccc3)CC2)cc1` (centres unmarked) [Compound P23]: the half-maximal inhibitory concentration (IC50) was 490 nM in assay [2] (setting [4]) and 310 nM in assay [2] (setting [5]).
Consider `O=C(CC(c1ccccc1)c1ccccc1)N1CCN(C(c2ccccc2)c2ccc(F)cc2)CC1` (centres unmarked) [Compound P24], for which the IC50 in assay [2] (setting [4]) was 600 nM; in assay [2] (setting [5]), 380 nM.
`COc1cc(C(c2ccccc2)N2CCN(C(=O)CC(c3ccccc3)c3ccccc3)CC2)cc(OC)c1OC` (centres unmarked) [Compound P25]: the values for the IC50 in assay [2] (setting [4]) and in assay [2] (setting [5]) were 1090 nM and 513 nM, respectively.
In the case of `COc1ccc(C(c2ccc3c(c2)OCO3)N2CCN(C(=O)CC(c3ccccc3)c3ccccc3)CC2)cc1` (centres unmarked) [Compound P26], the IC50 in assay [2] (setting [4]) came out at 710 nM; in assay [2] (setting [5]), 533 nM.
For `O=C(CC(c1ccccc1)c1ccccc1)N1CCN(C2c3ccccc3S(=O)(=O)c3ccccc32)CC1` [Compound P27], in that order: 854 nM and 552 nM.
Regarding `O=C(CC(c1ccccc1)c1ccccc1)N1CCN(C(c2ccccc2)c2ccc(Cl)c(Cl)c2)CC1` (centres unmarked) [Compound P30], the IC50 in assay [1] (setting [3]), in assay [2] (setting [4]) and in assay [2] (setting [5]) was above 1000 nM in each case.
`O=C(CC(c1ccccc1)c1ccccc1)N1CCN(C2c3ccccc3-c3ccccc32)CC1` [Compound P31]: the IC50 in assay [1] (setting [3]) came to 371 nM.
For `O=C(CC1c2ccccc2-c2ccccc21)N1CCN(C(c2ccccc2)c2ccccc2)CC1` [Compound P33], the 50% inhibitory concentration (IC50) in assay [1] (setting [3]) is 404 nM.
On to `O=C(CC(c1ccccc1)c1ccccc1)N1CCN(C(c2ccccc2)c2ccccc2)C(=O)C1` [Compound P34, 1-Benzhydryl-4-(3,3-diphenyl-propionyl)-piperazin-2-one], for which the 50% inhibitory concentration (IC50) was determined as 737 nM in assay [2] (setting [4]) and 680 nM in assay [2] (setting [5]).
On to `CC1CN(C(c2ccccc2)c2ccccc2)CCN1C(=O)CC(c1ccccc1)c1ccccc1` (centres unmarked) [Compound P37], for which the half-maximal inhibitory concentration (IC50) in assay [1] (setting [7]) was 474 nM; in assay [1] (setting [3]) it was 991 nM; in assay [2] (setting [4]), 162 nM; in assay [2] (setting [5]), 24 nM.
Turning to `O=C(O)C1CN(C(c2ccccc2)c2ccccc2)CCN1C(=O)CC1c2ccccc2-c2ccccc21` (centres unmarked) [Compound P38], the IC50 in assay [1] (setting [7]) came to 181 nM; in assay [1] (setting [3]), 699 nM; in assay [2] (setting [4]), 200 nM; in assay [2] (setting [5]) it was 160 nM.
For `CCOC(=O)C1CN(C(c2ccccc2)c2ccccc2)CCN1C(=O)CC1c2ccccc2-c2ccccc21` (centres unmarked) [Compound P39], in that order: 768 nM, 2200 nM, 240 nM and 190 nM.
On to `CCOC(=O)C1CN(C(c2ccccc2)c2ccccc2)CCN1C(=O)CC(c1ccccc1)c1ccccc1` (centres unmarked) [Compound P41], for which the half-inhibitory concentration (IC50) was determined as 363 nM in assay [1] (setting [7]), 1010 nM in assay [1] (setting [3]), 420 nM in assay [2] (setting [4]) and 390 nM in assay [2] (setting [5]).
Regarding `O=C(O)C1CN(C(c2ccccc2)c2ccccc2)CCN1C(=O)CC(c1ccccc1)c1ccccc1` (centres unmarked) [Compound P42], the IC50 in assay [1] (setting [7]) was 1840 nM; in assay [2] (setting [4]), 1900 nM; in assay [2] (setting [5]), 1490 nM. The “Block of α1G T-type Channels IC50, 100 mV” value in assay [1] (setting [6]) is listed as “no effect”.
Consider `CCOC(=O)C1CN(C(c2ccccc2)c2ccccc2)CCN1C(=O)CC(c1ccccc1)c1ccccc1` (centres unmarked) [Compound P43], for which the IC50 in assay [1] (setting [7]) was found to be 279 nM; in assay [1] (setting [3]), 2380 nM; in assay [2] (setting [4]) it was 167 nM; in assay [2] (setting [5]) it was 83 nM.
On to `N#CC1CN(C(c2ccccc2)c2ccccc2)CCN1C(=O)CC(c1ccccc1)c1ccccc1` (centres unmarked) [Compound P45], for which the IC50 in assay [1] (setting [7]) was 833 nM; in assay [1] (setting [3]) it was 10000 nM; in assay [2] (setting [4]) it was 230 nM; in assay [2] (setting [5]), 220 nM.
For the molecule `O=C(CC(c1ccccc1)c1ccccc1)N1CCN(C(c2ccccc2)c2ccc(O)cc2)CC1` (centres unmarked) [Compound P49], the half-maximal inhibitory concentration (IC50) in assay [1] (setting [7]) was 835 nM; in assay [1] (setting [3]), 2700 nM; in assay [2] (setting [4]), 340 nM; in assay [2] (setting [5]) it was 320 nM.
As to `O=C(CC(c1ccccc1)c1ccccc1)N1CCN(C(c2ccccc2)c2cc(C(F)(F)F)cc(C(F)(F)F)c2)CC1` (centres unmarked) [P10 (HC1)], the IC50 is 300 nM in assay [2] (setting [4]) and 190 nM in assay [2] (setting [5]).
For `O=C(CC(c1ccccc1)c1ccccc1)N1CCN(C(c2ccccc2)c2ccc(Cl)cc2Cl)CC1` (centres unmarked) [P29 (HC1)], in that order: above 1000 nM and above 1000 nM.
Consider `O=C(CC(c1ccccc1)c1ccccc1)N1CCN(C2c3ccccc3CCc3ccccc32)CC1` [P32 (HC1)], for which the half-inhibitory concentration (IC50) in assay [2] (setting [4]) was above 1000 nM; in assay [2] (setting [5]) it was 830 nM.
